Laboratory results from ChEMBL document CHEMBL1128418, “Synthesis and activity against multidrug resistance in Chinese hamster ovary cells of new acridone-4-carboxamides” (J Med Chem, 1995).

Assays:
[1] = tested on: CHRC5 cell line; assay: Reversal of sensitivity of multidrug resistant chinese hamster ovary cell line CHRC/5 expressed as concentration that restores 50% of cytotoxic activity of 5 ug/mL toward doxorubicin; format: functional, cell-based; conditions: Cricetulus griseus
[2] = tested on: CHRC5 cell line; assay: Reversal of sensitivity of multidrug resistant chinese hamster ovary cell line CHRC/5 expressed as concentration that restores 50% of cytotoxic activity of 5 ug/mL toward doxorubicin; Not active; format: functional, cell-based, Cricetulus griseus
[3] = tested on: CHRC5 cell line; assay: Reversal of sensitivity of multidrug resistant chinese hamster ovary cell line CHRC/5 expressed as concentration that restores 50% of cytotoxic activity of 5 ug/mL toward doxorubicin; Toxic alone to cells at 5 uM; format: functional, cell-based, Cricetulus griseus

Row | SMILES | EC50 ([1]; read-out: EC50) [µM] | other results
1 | COc1ccc(CN(C)CCCc2ccc(NC(=O)c3cccc4c(O)c5ccccc5nc34)cc2)cc1OC | 0.06 | 
2 | COc1ccc(CN(C)CCc2ccc(NC(=O)c3cccc4c(O)c5cccc(OC)c5nc34)cc2)cc1OC | 0.021 | 
3 | COc1ccc(CCN(C)CCOc2ccc(NC(=O)c3cccc4c(=O)c5ccccc5oc34)cc2)cc1OC | 0.18 | 
4 | COc1ccc(CCN(C)CCOc2ccc(NC(=O)c3cccn4c(=O)c5ccccc5nc34)cc2)cc1OC | 0.21 | 
5 | COc1ccc(CN(C)CCc2ccc(NC(=O)c3cccc4c(O)c5ccccc5nc34)cc2)cc1OC | 0.027 | 
6 | COc1ccc(CN(C)CCc2ccc(NC(=O)c3cccc4c(O)c5cccc([N+](=O)[O-])c5nc34)cc2)cc1OC | 0.195 | 
7 | COc1ccc(CN(C)CCc2ccc(NC(=O)c3cccc4c(O)c5cccc(F)c5nc34)c(C)c2)cc1OC | 0.088 | 
8 | COc1cc2c(cc1OC)CN(CCc1ccccc1NC(=O)c1cccc3c(O)c4cccc(OC)c4nc13)CC2 | 0.305 | 
9 | COc1ccc(CCN(C)CCCN2CCN(C(=O)c3cccc4c(O)c5ccccc5nc34)CC2)cc1OC |  | EC50 [2]: Not Active
10 | CSc1ccc(CN(C)CCOc2ccc(NC(=O)c3cccc4c(O)c5ccccc5nc34)cc2)cc1 | 0.69 | 
11 | COc1ccc(CN(C)CCOc2ccc(NC(=O)c3cccc4c(O)c5cccc(OC)c5nc34)c(C)c2)cc1OC | 0.28 | 
12 | COc1ccc(CN(C)C/C=C/c2ccc(NC(=O)c3cccc4c(O)c5ccccc5nc34)cc2)cc1OC | 0.27 | 
13 | COc1ccc(CN(C)CCCc2cccc(NC(=O)c3cccc4c(O)c5cccc(OC)c5nc34)c2)cc1OC | 0.045 | 
14 | COc1ccc(CCN(C)CCOc2ccc(NC(=O)c3cccc4c(=O)c5ccccc5sc34)cc2)cc1OC | 0.09 | 
15 | CCN(CCOc1ccc(NC(=O)c2cccc3c(=O)c4ccccc4[nH]c23)cc1)Cc1ccccc1 | 0.11 | 
16 | COc1ccc(CCN(C)CCOc2ccc(NC(=O)c3cccc4c3Oc3ccccc3O4)cc2)cc1OC | 0.46 | 
17 | O=C(Nc1ccc(OCCCN2CCc3ccccc3C2)cc1)c1cccc2c(=O)c3ccccc3[nH]c12 | 0.21 | 
18 | CN(CCOc1ccc(NC(=O)c2cccc3c(=O)c4ccccc4[nH]c23)cc1)Cc1ccc(F)cc1 | 0.93 | 
19 | CCN(CC)CCOc1ccc(NC(=O)c2cccc3c(=O)c4ccccc4[nH]c23)cc1 |  | EC50 [2]: Not Active
20 | COc1ccc(CCN(C)CCOc2ccc(NC(=O)c3cccc4c3C(=O)c3ccccc3C4=O)cc2)cc1OC | 1.5 | 
21 | CN(CCOc1ccc(NC(=O)c2cccc3c(=O)c4ccccc4[nH]c23)cc1)Cc1ccc2c(c1)OCO2 | 0.55 | 
22 | COc1ccc(CN(C)CCOc2ccc(NC(=O)c3cccc4c(=O)c5ccccc5[nH]c34)cc2)cc1 | 0.65 | 

Row | SMILES | EC50 ([1]; read-out: EC50) [µM] | other results
23 | COc1ccc(CCN(C)CCOc2ccc(NC(=O)c3cccc4c3Nc3ccccc3S4)cc2)cc1OC | 0.18 | 
24 | CN(CCOc1ccc(NC(=O)c2cccc3c(=O)c4ccccc4[nH]c23)cc1)Cc1ccccc1 | 0.72 | 
25 | Cc1ccc(CN(C)CCOc2ccc(NC(=O)c3cccc4c(=O)c5ccccc5[nH]c34)cc2)cc1 | 0.24 | 
26 | COc1ccccc1CN(C)CCOc1ccc(NC(=O)c2cccc3c(=O)c4ccccc4[nH]c23)cc1 | 0.51 | 
27 | COc1ccc(CNCCCOc2ccc(NC(=O)c3cccc4c(=O)c5ccccc5[nH]c34)cc2)cc1OC | 0.525 | 
28 | COc1cc2c(cc1OC)CN(CCCOc1ccc(NC(=O)c3cccc4c(=O)c5ccccc5[nH]c34)cc1)CC2 | 0.05 | 
29 | CN(CCOc1ccc(NC(=O)c2cccc3c(=O)c4ccccc4[nH]c23)cc1)Cc1ccc(C(F)(F)F)cc1 | 0.8 | 
30 | COc1cc2c(cc1OC)CN(CCc1ccc(NC(=O)c3cccc4c(=O)c5cccc(OC)c5[nH]c34)cc1)CC2 | 0.021 | 
31 | COc1ccc(CN(C)Cc2ccc(NC(=O)c3cccc4c(O)c5ccccc5nc34)cc2)cc1OC | 0.37 | 
32 | COc1ccc(CN(C)CCOc2ccc(NC(=O)c3cccc4c(=O)cc(-c5ccccc5)[nH]c34)cc2)cc1OC | 0.33 | 
33 | COc1ccc(CCN(C)CCOc2ccc(NC(=O)c3cccc4c(Cl)c5ccccc5nc34)cc2)cc1OC | 0.66 | 
34 | COc1ccc(CCN(C)CCCOc2ccc(NC(=O)c3cccc4c(=O)c5ccccc5[nH]c34)cc2)cc1OC | 0.09 | 
35 | COc1ccc(CCN(C)CCCC(C#N)(c2ccc(OC)c(OC)c2)C(C)C)cc1OC (stereo not given) |  | EC50 [1]: 3 µM
36 | COc1ccc(CN(C)CCc2ccccc2NC(=O)c2cccc3c(O)c4cccc(OC)c4nc23)cc1OC | 0.465 | 
37 | COc1cc2c(cc1OC)CN(CCCc1cccc(NC(=O)c3cccc4c(O)c5cccc(OC)c5nc34)c1)CC2 | 0.048 | 
38 | COc1cc2c(cc1OC)CN(CCc1cccc(NC(=O)c3cccc4c(O)c5cccc(OC)c5nc34)c1)CC2 | 0.155 | 
39 | COc1ccc(CN(C)CCc2ccc(NC(=O)c3cccc4c(O)c5cccc(C)c5nc34)cc2)cc1OC | 0.021 | 
40 | COc1ccc(CN(C)CCCOc2ccc(NC(=O)c3cccc4c(O)c5cccc(F)c5nc34)c(C)c2)cc1OC | 0.063 | 
41 | COc1ccc(CN(C)CCCSc2ccc(NC(=O)c3cccc4c(O)c5ccccc5nc34)cc2)cc1OC | 0.045 | 
42 | COc1ccc(CN(C)CCc2ccc(NC(=O)c3cccc4c(O)c5cccc(F)c5nc34)cc2)cc1OC | 0.018 | 
43 | COc1ccc(CN(C)C/C=C/Cc2ccc(NC(=O)c3cccc4c(O)c5ccccc5nc34)cc2)cc1OC | 0.15 | 
44 | COc1ccc(CN(C)CCCCc2ccc(NC(=O)c3cccc4c(O)c5cccc(N)c5nc34)cc2)cc1OC | 0.177 | 

Row | SMILES | EC50 ([1]; read-out: EC50) [µM] | other results
45 | CN(CCCCCCCCNC(=O)c1cccc2c(O)c3ccccc3nc12)Cc1ccccc1 | 1.1 | 
46 | COc1ccc(CN(C)CCOc2ccc(NC(=O)c3cccc4nc5ccccc5nc34)cc2)cc1OC | 0.33 | 
47 | COc1cc(CCN(C)Cc2ccc(OC)c(OC)c2)ccc1NC(=O)c1cccc2c(O)c3cccc(F)c3nc12 | 0.021 | 
48 | COc1ccc(CCN(C)CCCN2CCC(NC(=O)c3cccc4c(=O)c5ccccc5[nH]c34)CC2)cc1OC |  | EC50 [2]: Not Active
49 | COc1ccc(CCN(C)CCOc2ccc(NC(=O)c3cccc4cc5ccccc5nc34)cc2)cc1OC |  | EC50 [3]: Toxic
50 | COc1ccc(CN(C)CCOc2ccc(NC(=O)c3cccc4c(O)c5ccccc5nc34)cc2)cc1OC | 0.09 | 
51 | COc1ccc(CN(C)CCCCc2ccc(NC(=O)c3cccc4c(O)c5ccccc5nc34)cc2)cc1OC | 0.03 | 
52 | COc1cc(CCCN(C)Cc2ccc(OC)c(OC)c2)ccc1NC(=O)c1cccc2c(O)c3cccc(OC)c3nc12 | 0.037 | 
53 | COc1ccc(CN(C)CCCOc2ccc(NC(=O)c3cccc4c(O)c5ccccc5nc34)cc2)cc1OC | 0.036 | 
54 | COc1cc(OC)c2nc3c(C(=O)Nc4ccc(CCN(C)Cc5ccc(OC)c(OC)c5)cc4)cccc3c(O)c2c1 | 0.022 | 
55 | COc1cc(OCCCN(C)Cc2ccc(OC)c(OC)c2)ccc1NC(=O)c1cccc2c(O)c3cccc(F)c3nc12 | 0.03 | 
56 | COc1cc(OCCCN(C)Cc2ccc(OC)c(OC)c2)ccc1NC(=O)c1cccc2c(O)c3cccc(C)c3nc12 | 0.04 | 
57 | CCc1cc(OCCCN(C)Cc2ccc(OC)c(OC)c2)ccc1NC(=O)c1cccc2c(O)c3cccc(F)c3nc12 | 0.09 | 
58 | COc1ccc(CN(C)CCCc2ccccc2NC(=O)c2cccc3c(O)c4cccc(OC)c4nc23)cc1OC | 0.585 | 
59 | COc1cc(CCCN(C)Cc2ccc(OC)c(OC)c2)ccc1NC(=O)c1cccc2c(O)c3cccc(F)c3nc12 | 0.043 | 
60 | COc1ccc(CN(C)CCc2ccc(NC(=O)c3cccc4c(O)c5cccc(C)c5nc34)c(C)c2)cc1OC | 0.08 | 
61 | COc1ccc(CN(C)CCCOc2ccc(NC(=O)c3cccc4c(O)c5cccc(C)c5nc34)c(C)c2)cc1OC | 0.093 | 
62 | COc1ccc(CN(C)CCc2ccc(NC(=O)c3cccc4c(=O)c5ccccc5n(C)c34)cc2)cc1OC | 0.21 | 
63 | COc1ccc(CN(C)CCCCCc2ccc(NC(=O)c3cccc4c(O)c5ccccc5nc34)cc2)cc1OC | 0.15 | 
64 | COc1cc2c(cc1OC)CN(CCc1ccc(NC(=O)c3cccc4c(O)c5cccc(F)c5nc34)cc1)CC2 | 0.033 | 
65 | COc1ccc2nc3c(C(=O)Nc4ccc(CCCCN(C)Cc5ccc(OC)c(OC)c5)cc4)cccc3c(O)c2c1 | 0.12 | 
